Reference: US20250367321A1, “COMPOSITIONS AND METHODS INVOLVING ADGRG6” (The Regents of the University of California, priority 2022, published 2025)

What was measured:
adenyl cyclase (AC) = test: cAMP levels after treatment with the AC inhibitor; type: cell-based, human; details: for cAMP levels upon aAdo treatment: basal condition
Excerpt: (§1) CAMP is a well-known signaling molecule that initiates adipogenesis by increasing protein kinase A (pKA), which then phosphorylates early transcription factors, including C/EBPb. To test whether ADGRG6 might increase cAMP levels in preadipocytes, we measured CAMP levels in WT and ADGRG6 KO human preadipocytes in both basal condition and forskolin which is […], using ELISA. […] We also measured cAMP levels in human preadipocytes that overexpress ADGRG6. […] In order to test whether ADGRG6 can directly affect cAMP levels via adenyl cyclase (AC), that converts ATP to CAMP, we treated ADGRG6 overexpressing preadipocytes with 2′,5′-Dideoxyadenosine (aAdo), an inhibitor of AC. In the basal condition, cAMP levels were reduced in both WT and ADGRG6 overexpressing cells upon aAdo treatment (FIG. 4A). […] Furthermore, we also examined the downstream target of CAMP-PKA, CREB phosphorylation. […] In the stimulated condition, p-CREB increased in WT cells but not in ADGRG6 KO cells (FIG. 4B).

human preadipocytes = test: cAMP levels by ELISA, basal or forskolin-stimulated; type: cell-based; details: WT human preadipocytes, forskolin treatment
Excerpt: as §1

SMILES | cAMP levels upon aAdo treatment (adenyl cyclase (AC); ADGRG6 overexpressing preadipocytes) | increase of cAMP levels in ADGRG6 overexpressing preadipocytes compared to WT (adenyl cyclase (AC); Ado stimulated condition) | cAMP levels upon aAdo treatment (adenyl cyclase (AC); WT preadipocytes) | increase in cAMP levels compared to the basal condition (human preadipocytes)
C[C@H]1O[C@@H](n2cnc3c(N)ncnc32)C[C@@H]1O [aAdo, 2′,5′-Dideoxyadenosine] | reduced | 25% | reduced | 
C=C[C@@]1(C)CC(=O)[C@]2(O)[C@@]3(C)[C@@H](O)CCC(C)(C)[C@@H]3[C@H](O)[C@H](OC(C)=O)[C@@]2(C)O1 [forskolin] |  |  |  | 2 fold
